Results on 20 compounds are retold here after US8101612B2, “Phthalazine compounds and methods of use” (Amgen Inc., priority 2006, dated 2012).

pIC50: −log10 of the molar value. Some results are limits rather than exact numbers.

Assay [1] relates to production of TNF by monocytes activated with bacterial lipopolysaccharide (LPS). In words: Lipopolysaccharide-activated monocyte TNF production assay (whole blood monocyte assay, LPS induced TNF release). Type of assay: cell-based. Particulars: Homo sapiens. Here is the method:
Lipopolysaccharide-Activated Monocyte TNF Production Assay
Test compounds were evaluated in vitro for the ability to inhibit the production of TNF by monocytes activated with bacterial lipopolysaccharide (LPS). Fresh residual source leukocytes (a byproduct of plateletpheresis) were obtained from a local blood bank, and peripheral blood mononuclear cells (PBMCs) were isolated by density gradient centrifugation on Ficol-Paque Plus (Pharmacia). PBMCs were suspended at 2×10^6/mL in DMEM supplemented to contain 2% FCS, 10 mM, 0.3 mg/mL […], 100 U/mL penicillin G and […] streptomycin sulfate (complete media). Cells were plated into Falcon flat bottom, 96 well culture plates (200 μL/well) and cultured overnight at 37° C. and 6% CO2. Non-adherent cells were removed by washing with 200 μl/well of fresh medium. Wells containing adherent cells (˜70% monocytes) were replenished with 100 μL of fresh medium.
Preparation of Test Compound Stock Solutions
Test compounds were dissolved in […]. Compound stock solutions were prepared to an initial concentration of […]. Stocks were diluted initially to 20-200 μM in complete media. Nine two-fold serial dilutions of each compound were then prepared in complete medium.
Treatment of Cells with Test Compounds and Activation of TNF Production with Lipopolysaccharide
One hundred microliters of each test compound dilution were added to microtiter wells containing adherent monocytes and 100 μL complete medium. Monocytes were cultured with test compounds for 60 min at which time 25 μL of complete medium containing 30 ng/mL lipopolysaccharide from E. coli K532 were added to each well. Cells were cultured an additional 4 hrs. Culture supernatants were then removed and TNF presence in the supernatants was quantified using an ELISA.
Flat bottom, 96 well Corning High Binding ELISA plates were coated overnight (4° C.) with 150 μL/well of 3 μg/mL murine anti-human TNF-α MAb (R&D Systems #MAB210). Wells were then blocked for 1 h at room temperature with 200 μL/well of CaCl2-free ELISA buffer supplemented to contain 20 mg/mL BSA (standard ELISA buffer: […], 150 mM NaCl, 2 mM CaCl2, 0.15 mM thimerosal, pH 7.4). Plates were washed and replenished with 100 μL of test supernatants (diluted 1:3) or standards. Standards consisted of eleven 1.5-fold serial dilutions from a stock of 1 ng/mL recombinant human TNF (R&D Systems). Plates were incubated at room temperature for 1 h on orbital shaker (300 rpm), washed and replenished with 100 μL/well of 0.5 μg/mL goat anti-human TNF-α (R&D systems #AB-210-NA) biotinylated at a 4:1 ratio. Plates were incubated for 40 min, washed and replenished with 100 μL/well of alkaline phosphatase-conjugated streptavidin (Jackson ImmunoResearch #016-050-084) at 0.02 μg/mL. Plates were incubated 30 min, washed and replenished with 200 μL/well of 1 mg/mL of p-nitrophenyl phosphate. After 30 min, plates were read at 405 nm on a Vmax plate reader.

The test system of assay [2] is THP1 cells (LPS-induced TNF-α secretion). In words: Lipopolysaccharide-activated THP1 cell TNF production assay. Type of assay: cell-based. Particulars: Homo sapiens, THP-1. Here is the method: Lipopolysaccharide-Activated THP1 Cell TNF Production Assay
THP1 cells are resuspended in fresh THP1 media (RPMI 1640, 10% heat-inactivated FBS, 1XPGS, 1XNEAA, plus 30 μM βME) at a concentration of 1E6/mL. One hundred microliters of cells per well are plated in a polystyrene 96-well tissue culture. One microgram per mL of bacterial LPS is prepared in THP1 media and is transferred to the wells. Test compounds are dissolved in 100% DMSO and are serially diluted 3-fold in a polypropylene 96-well microtiter plate (drug plate). HI control and LO control wells contain only DMSO. One microliter of test compound from the drug plate followed by 10 μL of LPS are transferred to the cell plate. The treated cells are induced to synthesize and secrete TNF-α at 37° C. for 3 h. Forty microliters of conditioned media are transferred to a 96-well polypropylene plate containing 110 μL of ECL buffer (50 mM Tris-HCl pH 8.0, 100 mM NaCl, 0.05% Tween 20, 0.05% NaN3 and 1% FBS) supplemented with 0.44 nM MAB610 monoclonal Ab (R&D Systems), 0.34 nM ruthenylated AF210NA polyclonal Ab (R&D Systems) and 44 μg/mL sheep anti-mouse M280 Dynabeads (Dynal). After a 2 h incubation at room temperature with shaking, the reaction is read on the ECL M8 Instrument (IGEN Inc.). A low voltage is applied to the ruthenylated TNF-α immune complexes, which in the presence of TPA (the active component in Origlo), results in a cyclical redox reaction generating light at […]. The amount of secreted TNF-α in the presence of compound compared with that in the presence of DMSO vehicle alone (HI control) is calculated using the formula: % control (POC)=(cpd−average LO)/(average HI−average LO)*100. Data (consisting of POC and inhibitor concentration in μM) is fitted to a 4-parameter equation (y=A+((B−A)/(1+((x/C)^D))), where A is the minimum y (POC) value, B is the maximum y (POC), C is the x (cpd concentration) at the point of inflection and D is the slope factor) using a Levenburg-Marquardt non-linear regression algorithm.

A short description of assay [3]: AA5225_IC50_IP (Table 4, assay code not explained). Particulars: internal assay code.
Assay [4] can be described thus: AA2734_IC50_IP (Table 4, assay code not explained). Particulars: internal assay code.

On to `CCn1nccc1NC(=O)c1ccc(C)c(-c2ccc3c(NC(C)C)nncc3c2)c1` [Example 3, N-(1-Ethyl-1H-pyrazol-5-yl)-3-(1-(isopropylamino)phthalazin-6-yl)-4-methylbenzamide], for which the negative-log IC50 (pIC50) in assay [1] and in assay [2] was no less than 8.00 each time.
For `Cc1ccc(C(=O)NC2CC2)cc1-c1ccc2c(-c3cc(F)c(S(C)(=O)=O)cc3C)nncc2c1` [Example 223, N-cyclopropyl-3-(1-(5-fluoro-2-methyl-4-(methylsulfonyl)phenyl)-6-phthalazinyl)-4-methylbenzamide], the pIC50 in assay [1] is no less than 8.00; in assay [3] it was 9.07; in assay [4] it was 8.91.
In assay [1], `Cc1ccc(C(=O)Nc2ccnn2C)cc1-c1ccc2c(N3CCOC[C@@H]3C)nncc2c1` [Example 15, 4-methyl-3-(1-((3S)-3-methyl-4-morpholinyl)-6-phthalazinyl)-N-(1-methyl-1H-pyrazol-5-yl)benzamide] gave a negative logarithm of the IC50 (pIC50) of no less than 8.00.
Compound `Cc1ccc(C(=O)NCC(F)(F)F)cc1-c1ccc2c(NC(C)C)nncc2c1` [Example 29, 4-methyl-3-(1-((1-methylethyl)amino)-6-phthalazinyl)-N-(2,2,2-trifluoroethyl)benzamide] gave a negative logarithm of the IC50 (pIC50) in assay [1] of no less than 8.00.
With `CC(C)Oc1nncc2cc(-c3cc(C(N)=O)ccc3Cl)ccc12` [Example 25, 4-chloro-3-(1-((1-methylethyl)oxy)-6-phthalazinyl)benzamide], in assay [2], the negative logarithm of the IC50 (pIC50) is no less than 8.00.
In assay [1], `CCC(C)c1nncc2cc(-c3cc(C(N)=O)ccc3C)ccc12` (centres unmarked) [Example 51, 4-methyl-3-(1-(1-methylpropyl)-6-phthalazinyl)benzamide] had a negative logarithm of the IC50 (pIC50) of no less than 8.00.
The same measure, in the same setting: as for `Cc1ccc(C(N)=O)cc1-c1ccc2c(N3CCC[C@H]3C(C)(C)C)nncc2c1` [Example 35, 3-(1-((2S)-2-(1,1-dimethylethyl)-1-pyrrolidinyl)-6-phthalazinyl)-4-methylbenzamide], the figure is no less than 8.00.
As for `Cc1ccc(C(=O)Nc2ccnn2C)cc1-c1ccc2c(-c3ccccc3C)nncc2c1` [Example 5, 4-methyl-N-(1-methyl-1H-pyrazol-5-yl)-3-(1-o-tolylphthalazin-6-yl)benzamide], the negative-log IC50 (pIC50) in assay [1] and in assay [2] was no less than 8.00 in each case.
In turn, `Cc1ccc(C(=O)Nc2ccnn2C)cc1-c1ccc2c(OCC(F)(F)F)nncc2c1` [Example 2, 4-Methyl-N-(1-methyl-1H-pyrazol-5-yl)-3-(1-(2,2,2-trifluoroethoxy)phthalazin-6-yl)benzamide] showed a negative logarithm of the IC50 (pIC50) in assay [2] of no less than 8.00.
`Cc1ccc(C(=O)NC(C)C)cc1-c1ccc2c(C(C)C)nncc2c1` [Example 39, 4-methyl-N-(1-methylethyl)-3-(1-(1-methylethyl)-6-phthalazinyl)benzamide] showed a negative-log IC50 (pIC50) in assay [1] of no less than 8.00.
Same read-out and setting: as for `Cc1ccc(C(=O)NC2(C)CC2)cc1-c1ccc2c(N3CCC[C@@H]3C)nncc2c1` [Example 66, 4-methyl-N-(1-methylcyclopropyl)-3-(1-((2S)-2-methyl-1-pyrrolidinyl)-6-phthalazinyl)benzamide], the figure is no less than 8.00; as for `Cc1ccc(C(=O)Nc2ccn(C)n2)cc1-c1ccc2c(O[C@@H](C)C(F)(F)F)nncc2c1` [Example 72, 4-methyl-N-(1-methyl-1H-pyrazol-3-yl)-3-(1-(((1S)-2,2,2-trifluoro-1-methylethyl)oxy)-6-phthalazinyl)benzamide], no less than 8.00.
Regarding `CC(C)Nc1nncc2cc(-c3cc(C(=O)NC4CC4)ccc3Cl)ccc12` [Example 23, 4-chloro-N-cyclopropyl-3-(1-((1-methylethyl)amino)-6-phthalazinyl)benzamide], the pIC50 in assay [2] was no less than 8.00.
In assay [1], `Cc1ccc(C(=O)NC(C)C)cc1-c1ccc2c(O[C@H](C)C(F)(F)F)nncc2c1` [Example 41, 4-methyl-N-(1-methylethyl)-3-(1-(((1R)-2,2,2-trifluoro-1-methylethyl)oxy)-6-phthalazinyl)benzamide] had a pIC50 of no less than 7.00.
Regarding `Cc1ccc(C(N)=O)cc1-c1ccc2c(O[C@H](C)C(F)(F)F)nncc2c1` [Example 43, 4-methyl-3-(1-(((1R)-2,2,2-trifluoro-1-methylethyl)oxy)-6-phthalazinyl)benzamide], the negative-log IC50 (pIC50) in assay [1] is no less than 7.00.
In the case of `Cc1ccc(C(=O)NC2CC2)cc1-c1ccc2c([C@H](C)C(F)(F)F)nncc2c1` [Example 227b, N-cyclopropyl-4-methyl-3-(1-((1S)-2,2,2-trifluoro-1-methylethyl)-6-phthalazinyl)benzamide], the pIC50 was no less than 8.00 in assay [1], 8.79 in assay [3] and 9.48 in assay [4].
`Cc1ccc(C(=O)NC(C)C)cc1-c1ccc2c(N3CCC[C@H]3C)nncc2c1` [Example 37, 4-methyl-N-(1-methylethyl)-3-(1-((2R)-2-methyl-1-pyrrolidinyl)-6-phthalazinyl)benzamide]: the negative-log IC50 (pIC50) in assay [1] is no less than 8.00.
In assay [2], `Cc1ccc(C(=O)NC2CC2)cc1-c1ccc2c(OC(CF)CF)nncc2c1` [Example 49, N-cyclopropyl-3-(1-((2-fluoro-1-(fluoromethyl)ethyl)oxy)-6-phthalazinyl)-4-methylbenzamide] showed a negative logarithm of the IC50 (pIC50) of no less than 7.00.
In assay [1], `Cc1ccc(N)cc1-c1ccc2c(O[C@H](C)C(F)(F)F)nncc2c1` [Example 238, 4-methyl-3-(1-(((1R)-2,2,2-trifluoro-1-methylethyl)oxy)-6-phthalazinyl)aniline] showed a negative-log IC50 (pIC50) of no less than 6.60.
On the same count and under the same terms, to `Cc1ccc(C(=O)Nc2ccon2)cc1-c1ccc2c(NC(C)C)nncc2c1` [Example 13, N-3-isoxazolyl-4-methyl-3-(1-((1-methylethyl)amino)-6-phthalazinyl)benzamide] belongs no less than 8.00.
